Measurements published in ChEMBL document CHEMBL3431459, “Roche carnitine palmitoyltransferase modulator screening data (supplementary data associated with the publication CHEMBL2216752)”.
Values after ≈ are worked out from the molar mass of the structure shown.

Key:
[1] = SUPPLEMENTARY: Lyophilisation Solubility Assay (LYSA); type: physicochemical; details: read-out: Kinetic_solubility
[2] = molecular target: T1, Carnitine O-palmitoyltransferase 2, mitochondrial (Homo sapiens, UniProt P23786); assay: (§1) SUPPLEMENTARY: Inhibition of Carnitine palmitoyltransferase 2
T1 sequence (P23786 whole entry): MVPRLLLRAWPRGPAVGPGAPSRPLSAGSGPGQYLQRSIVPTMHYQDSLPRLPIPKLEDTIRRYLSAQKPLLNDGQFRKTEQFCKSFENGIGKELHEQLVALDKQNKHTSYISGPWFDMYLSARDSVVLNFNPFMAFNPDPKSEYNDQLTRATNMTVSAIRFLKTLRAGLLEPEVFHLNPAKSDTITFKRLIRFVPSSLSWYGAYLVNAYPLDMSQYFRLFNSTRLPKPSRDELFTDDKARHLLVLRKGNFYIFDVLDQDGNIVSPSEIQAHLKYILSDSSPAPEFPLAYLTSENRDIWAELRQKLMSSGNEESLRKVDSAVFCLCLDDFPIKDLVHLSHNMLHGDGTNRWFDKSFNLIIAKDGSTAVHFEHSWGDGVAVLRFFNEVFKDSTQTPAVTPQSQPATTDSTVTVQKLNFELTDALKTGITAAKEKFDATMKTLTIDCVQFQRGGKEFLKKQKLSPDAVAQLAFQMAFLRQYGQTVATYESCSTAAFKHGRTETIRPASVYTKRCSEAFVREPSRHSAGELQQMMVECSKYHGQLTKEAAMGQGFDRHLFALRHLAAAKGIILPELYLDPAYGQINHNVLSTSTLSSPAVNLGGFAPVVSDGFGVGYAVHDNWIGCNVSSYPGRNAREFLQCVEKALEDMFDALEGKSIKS

[3] = molecular target: T2, Carnitine O-palmitoyltransferase 2, mitochondrial (Rattus norvegicus, UniProt P18886); assay: as §1
T2 sequence (P18886 whole entry): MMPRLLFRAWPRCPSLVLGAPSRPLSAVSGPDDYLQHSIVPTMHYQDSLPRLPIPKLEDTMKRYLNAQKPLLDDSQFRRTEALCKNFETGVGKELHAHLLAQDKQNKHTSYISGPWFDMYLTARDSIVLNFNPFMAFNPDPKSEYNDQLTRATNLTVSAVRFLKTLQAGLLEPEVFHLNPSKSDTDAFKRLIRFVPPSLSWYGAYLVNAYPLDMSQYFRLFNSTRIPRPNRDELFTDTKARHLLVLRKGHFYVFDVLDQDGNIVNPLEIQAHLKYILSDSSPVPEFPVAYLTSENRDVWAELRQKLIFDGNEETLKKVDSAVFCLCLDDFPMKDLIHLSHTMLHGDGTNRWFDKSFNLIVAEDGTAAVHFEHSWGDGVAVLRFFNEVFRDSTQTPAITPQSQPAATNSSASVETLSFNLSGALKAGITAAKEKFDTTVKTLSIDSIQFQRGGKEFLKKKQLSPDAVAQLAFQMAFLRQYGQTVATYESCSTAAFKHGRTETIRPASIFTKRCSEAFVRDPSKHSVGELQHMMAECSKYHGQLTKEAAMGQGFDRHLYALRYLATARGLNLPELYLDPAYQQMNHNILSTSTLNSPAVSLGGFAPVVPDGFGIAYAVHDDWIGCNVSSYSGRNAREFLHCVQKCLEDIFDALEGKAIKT

[4] = SUPPLEMENTARY: PAMPA permeability assay; type: physicochemical; details: read-out: Permeability
[5] = SUPPLEMENTARY: Lipophilicity (log D) Determination by high-throughput shake-flask; type: physicochemical; details: octanol/water
[6] = molecular target: T3, Carnitine O-palmitoyltransferase 1, muscle isoform (Homo sapiens, UniProt Q92523); assay: SUPPLEMENTARY: Inhibition of Carnitine palmitoyltransferase 1, muscle isoform; design: species or system Muscle tissue
T3 sequence (Q92523 whole entry): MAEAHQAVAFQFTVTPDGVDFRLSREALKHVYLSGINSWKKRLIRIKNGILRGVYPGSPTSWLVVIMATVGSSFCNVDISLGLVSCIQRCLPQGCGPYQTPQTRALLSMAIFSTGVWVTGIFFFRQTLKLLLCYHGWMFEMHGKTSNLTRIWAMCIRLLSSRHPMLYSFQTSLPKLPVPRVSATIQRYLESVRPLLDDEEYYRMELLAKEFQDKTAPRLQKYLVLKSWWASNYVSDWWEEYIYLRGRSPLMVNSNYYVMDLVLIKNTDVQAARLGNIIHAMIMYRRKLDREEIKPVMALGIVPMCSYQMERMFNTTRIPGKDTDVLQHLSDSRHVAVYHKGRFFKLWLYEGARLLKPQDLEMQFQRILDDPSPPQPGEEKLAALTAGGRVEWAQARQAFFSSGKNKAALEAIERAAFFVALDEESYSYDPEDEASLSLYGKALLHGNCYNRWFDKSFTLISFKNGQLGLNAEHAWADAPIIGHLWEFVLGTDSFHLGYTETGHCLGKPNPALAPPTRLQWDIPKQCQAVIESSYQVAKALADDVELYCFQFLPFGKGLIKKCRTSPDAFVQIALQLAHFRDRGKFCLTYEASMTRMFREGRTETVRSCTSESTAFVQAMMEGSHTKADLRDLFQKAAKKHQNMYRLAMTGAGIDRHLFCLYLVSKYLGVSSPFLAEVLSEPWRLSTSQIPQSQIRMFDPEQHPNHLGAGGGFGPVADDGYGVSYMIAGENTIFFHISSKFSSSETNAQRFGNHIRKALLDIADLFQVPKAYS

[7] = molecular target: T4, Carnitine O-palmitoyltransferase 1, liver isoform (Rattus norvegicus, UniProt P32198); assay: (§2) SUPPLEMENTARY: Inhibition of Carnitine palmitoyltransferase 1, liver isoform
T4 sequence (P32198 whole entry): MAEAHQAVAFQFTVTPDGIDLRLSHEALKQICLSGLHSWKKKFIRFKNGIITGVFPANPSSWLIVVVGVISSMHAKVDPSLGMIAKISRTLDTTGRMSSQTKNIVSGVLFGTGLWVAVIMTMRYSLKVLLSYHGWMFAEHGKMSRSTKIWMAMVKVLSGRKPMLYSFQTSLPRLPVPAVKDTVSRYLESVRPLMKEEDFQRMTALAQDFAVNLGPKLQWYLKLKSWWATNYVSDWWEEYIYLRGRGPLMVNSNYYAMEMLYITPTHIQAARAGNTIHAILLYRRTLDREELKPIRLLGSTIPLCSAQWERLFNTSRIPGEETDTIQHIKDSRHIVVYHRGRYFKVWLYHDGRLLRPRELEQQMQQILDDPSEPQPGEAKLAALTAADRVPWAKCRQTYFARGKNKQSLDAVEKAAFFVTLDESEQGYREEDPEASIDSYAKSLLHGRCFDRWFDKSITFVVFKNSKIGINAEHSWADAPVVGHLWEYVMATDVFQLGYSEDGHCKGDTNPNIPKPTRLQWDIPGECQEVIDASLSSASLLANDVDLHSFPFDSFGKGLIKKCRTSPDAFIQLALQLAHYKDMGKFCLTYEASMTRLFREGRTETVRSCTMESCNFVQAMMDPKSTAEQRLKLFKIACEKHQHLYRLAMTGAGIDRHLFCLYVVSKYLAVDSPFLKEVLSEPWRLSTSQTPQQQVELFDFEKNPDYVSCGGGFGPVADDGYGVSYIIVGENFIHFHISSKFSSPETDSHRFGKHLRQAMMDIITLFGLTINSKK

[8] = molecular target: T5, Carnitine O-palmitoyltransferase 1, liver isoform (Homo sapiens, UniProt P50416); assay: as §2
T5 sequence (P50416 whole entry): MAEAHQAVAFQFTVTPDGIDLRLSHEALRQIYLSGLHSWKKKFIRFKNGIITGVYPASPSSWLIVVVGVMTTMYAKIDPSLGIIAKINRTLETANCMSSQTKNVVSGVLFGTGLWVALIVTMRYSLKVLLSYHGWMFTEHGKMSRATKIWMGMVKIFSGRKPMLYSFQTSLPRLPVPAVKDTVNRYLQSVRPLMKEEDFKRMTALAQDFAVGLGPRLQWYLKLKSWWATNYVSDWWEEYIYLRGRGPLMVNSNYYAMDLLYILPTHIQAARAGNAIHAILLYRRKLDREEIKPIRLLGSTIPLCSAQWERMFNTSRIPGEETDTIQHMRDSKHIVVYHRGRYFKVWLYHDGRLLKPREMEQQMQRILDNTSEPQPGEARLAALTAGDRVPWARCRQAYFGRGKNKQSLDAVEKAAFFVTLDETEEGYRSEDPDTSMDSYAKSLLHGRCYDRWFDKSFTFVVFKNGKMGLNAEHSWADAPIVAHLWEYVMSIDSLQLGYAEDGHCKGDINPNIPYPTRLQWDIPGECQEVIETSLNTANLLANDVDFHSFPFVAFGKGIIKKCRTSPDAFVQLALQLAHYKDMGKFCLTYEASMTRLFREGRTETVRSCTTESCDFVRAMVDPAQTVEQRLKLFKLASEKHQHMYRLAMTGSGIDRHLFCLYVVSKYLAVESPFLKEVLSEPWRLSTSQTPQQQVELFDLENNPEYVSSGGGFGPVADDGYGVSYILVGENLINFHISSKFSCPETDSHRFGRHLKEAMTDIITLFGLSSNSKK

Compound | solubility kinetic [1] | IC50 [2] | IC50 [3] | Papp [4] | logD [5] | IC50 [6] | IC50 [7] | IC50 [8]
Cc1cc(C)cc(S(=O)(=O)N2CCS(=O)(=O)c3ccc(C(=O)Nc4ccc(C(=O)O)cc4)cc32)c1 | 481 µg/mL (≈ 935 µM) | 2800 nM | 10500 nM | 1.95 ×10⁻⁶ cm/s | 0.55 | 5300 nM | 18.1 nM | 31 nM
N#Cc1cccc(-c2n[nH]c([C@H]3CCCCN3C(=O)COc3ccccc3)n2)c1 | 31 µg/mL (≈ 80 µM) | 29800 nM | 33800 nM | 2.96 ×10⁻⁶ cm/s | 2.98 | > 100000 nM | 219 nM | 161 nM
COc1ccc(Cl)cc1S(=O)(=O)N1CCOc2c(C)cc(C(=O)Nc3nc(CC(=O)O)cs3)cc21 | 3 µg/mL (≈ 5.58 µM) | > 100000 nM | > 100000 nM | 1.88 ×10⁻⁶ cm/s | 2.55 | 3170 nM | 38.3 nM | 53.9 nM
COc1ccc(Cl)cc1S(=O)(=O)N1COc2c(F)cc(C(=O)Nc3ccc(C(=O)O)c(F)c3)cc21 | 59 µg/mL (≈ 112 µM) | 1950 nM | 10500 nM | 1.87 ×10⁻⁶ cm/s | 0.63 | 4930 nM | 84.4 nM | 61.7 nM
COc1ccc(Cl)cc1S(=O)(=O)N1CC(C(=O)O)Oc2ccc(C(=O)Nc3ccccc3F)cc21 (configuration not stated) | > 617 µg/mL | > 100000 nM | > 100000 nM | 0.38 ×10⁻⁶ cm/s | -0.49 | > 100000 nM | 169 nM | 218 nM
Cc1cc(-c2nc([C@H]3CCCCN3C(=O)COc3ccccc3)no2)n(C)n1 | 55 µg/mL (≈ 144 µM) | 16300 nM | > 100000 nM | 6.42 ×10⁻⁶ cm/s | 3.13 | > 100000 nM | 330 nM | 228 nM
O=C1Cc2cc(-c3noc(C4C5CC5CN4C(=O)COc4ccccc4)n3)ccc2N1 (configuration not stated) | 38 µg/mL (≈ 91.3 µM) | 65000 nM | 94400 nM | 5.4 ×10⁻⁶ cm/s | 2.51 | 39000 nM | 388 nM | 136 nM
CCC(=O)Nc1cccc(-c2n[nH]c([C@H]3CCCCN3C(=O)COc3ccccc3)n2)c1 | 56 µg/mL (≈ 129 µM) | 65700 nM | 76200 nM | 2.89 ×10⁻⁶ cm/s | 2.96 | > 100000 nM | 330 nM | 35.6 nM
COc1ccc(Cl)cc1S(=O)(=O)N1COc2ccc(C(=O)Nc3nc(CC(=O)O)cs3)cc21 | 519 µg/mL (≈ 1020 µM) | > 100000 nM | > 100000 nM | 2.93 ×10⁻⁶ cm/s | 0.13 | 661 nM | 18.4 nM | 53.3 nM
O=C1COc2ccc(-c3nc([C@H]4CCCCN4C(=O)COc4ccccc4)no3)cc2N1 | 35 µg/mL (≈ 80.6 µM) | > 100000 nM | > 100000 nM | 3.74 ×10⁻⁶ cm/s | 3.12 | > 100000 nM | 89.3 nM | 35.8 nM
CC(=O)Nc1cc(-c2noc([C@H]3CCCCN3C(=O)COc3ccccc3)n2)ccc1F | 18 µg/mL (≈ 41.1 µM) | > 100000 nM | > 100000 nM | 2.17 ×10⁻⁶ cm/s | 3 | > 100000 nM | 146 nM | 27.9 nM
COc1ccc(Cl)cc1S(=O)(=O)N(C)c1cc(C(=O)Nc2nc(CC(=O)O)cs2)cc2c1OCCO2 | 382 µg/mL (≈ 690 µM) | > 100000 nM | > 100000 nM | 1.28 ×10⁻⁶ cm/s | -0.18 | 1560 nM | 110 nM | 80.5 nM
O=C(O)c1cccc(-c2noc([C@H]3CCCCN3C(=O)COc3ccccc3)n2)c1 | > 461 µg/mL | > 100000 nM | > 100000 nM | 1.92 ×10⁻⁶ cm/s | 0.99 | 93600 nM | 1490 nM | 93.5 nM
Nc1cccc(-c2n[nH]c([C@H]3CCCCN3C(=O)COc3ccccc3)n2)c1 | 71 µg/mL (≈ 188 µM) | > 100000 nM | > 100000 nM | 5.37 ×10⁻⁶ cm/s | 2.42 | > 100000 nM | 815 nM | 109 nM
